According to ChEMBL document CHEMBL1201862, “PubChem BioAssay data set” (2004):
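Method: 48-hour compound exposure of cells in 96-well plates, five concentrations, linear interpolation of endpoints. Here, GI50 denotes the concentration required for 50% inhibition of growth.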 The source made the active and inactive calls. No stated cut-off is given here; in the data, active = GI50 up to about 1.1 µM and inactive = higher.

What was measured:
Assay in all cases: NCI-60 cell line screen, 48 h
COLO 205 = tested on: COLO 205
MCF7 = tested on: MCF7
MDA-N = tested on: MDA-N
TK-10 = tested on: TK-10
MOLT-4 = tested on: MOLT-4
UACC-62 = tested on: UACC-62
OVCAR-4 = tested on: OVCAR-4
HOP-92 = tested on: HOP-92
HCT-116 = tested on: HCT-116
SK-MEL-5 = tested on: SK-MEL-5
U-251 = tested on: U-251
SK-OV-3 = tested on: SK-OV-3
CAKI-1 = tested on: CAKI-1
PC-3 = tested on: PC-3
M14 = tested on: M14
DU-145 = tested on: DU-145
K562 = tested on: K562
MDA-MB-435 = tested on: MDA-MB-435
UO-31 = tested on: UO-31
MDA-MB-231 = tested on: MDA-MB-231
EKVX = tested on: EKVX
CCRF-CEM = tested on: CCRF-CEM
HCC 2998 = tested on: HCC 2998
BT-549 = tested on: BT-549
SR = tested on: SR
OVCAR-8 = tested on: OVCAR-8
IGROV-1 = tested on: IGROV-1
RXF 393 = tested on: RXF 393
NCI-H23 = tested on: NCI-H23
A549 = tested on: A549
SNB-19 = tested on: SNB-19
Malme-3M = tested on: Malme-3M
ACHN = tested on: ACHN
SF-268 = tested on: SF-268
SW-620 = tested on: SW-620
Hs-578T = tested on: Hs-578T
LOX IMVI = tested on: LOX IMVI
A498 = tested on: A498
HL-60 = tested on: HL-60
UACC-257 = tested on: UACC-257
SK-MEL-28 = tested on: SK-MEL-28
NCI/ADR-RES = tested on: NCI/ADR-RES
OVCAR-5 = tested on: OVCAR-5
NCI-H460 = tested on: NCI-H460
HOP-62 = tested on: HOP-62
786-0 = tested on: 786-0
SF-539 = tested on: SF-539
HCT-15 = tested on: HCT-15
SN12C = tested on: SN12C
SK-MEL-2 = tested on: SK-MEL-2
OVCAR-3 = tested on: OVCAR-3
HT-29 = tested on: HT-29
RPMI-8226 = tested on: RPMI-8226
T47D = tested on: T47D
KM12 = tested on: KM12
NCI-H522 = tested on: NCI-H522
NCI-H226 = tested on: NCI-H226
SF-295 = tested on: SF-295
SNB-75 = tested on: SNB-75

COc1cc(C2S/C(=C/c3ccccc3)C(=O)N2c2ccc([N+](=O)[O-])cc2)cc(OC)c1OC (centres undefined)
GI50 (COLO 205): 26.1 µM (inactive)
GI50 (MCF7): 58.3 µM (inactive)
GI50 (MDA-N): > 56.8 µM (inactive)
GI50 (TK-10): > 100 µM (inactive)
GI50 (MOLT-4): 47.3 µM (inactive)
GI50 (UACC-62): 3.91 µM (inactive)
GI50 (OVCAR-4): 45.9 µM (inactive)
GI50 (HOP-92): > 100 µM (inactive)
GI50 (HCT-116): > 64.9 µM (inactive)
GI50 (SK-MEL-5): 25.6 µM (inactive)
GI50 (U-251): > 100 µM (inactive)
GI50 (SK-OV-3): > 100 µM (inactive)
GI50 (CAKI-1): 97.1 µM (inactive)
GI50 (PC-3): > 100 µM (inactive)
GI50 (M14): 26.1 µM (inactive)
GI50 (DU-145): > 41.2 µM (inactive)
GI50 (K562): 3.68 µM (inactive)
GI50 (MDA-MB-435): 18 µM (inactive)
GI50 (UO-31): 47 µM (inactive)
GI50 (MDA-MB-231): > 100 µM (inactive)
GI50 (EKVX): 39.6 µM (inactive)
GI50 (CCRF-CEM): 32.6 µM (inactive)
GI50 (HCC 2998): > 100 µM (inactive)
GI50 (BT-549): 44.9 µM (inactive)
GI50 (SR): 9.27 µM (inactive)
GI50 (OVCAR-8): > 100 µM (inactive)
GI50 (IGROV-1): > 20.6 µM (inactive)
GI50 (RXF 393): > 100 µM (inactive)
GI50 (NCI-H23): > 100 µM (inactive)
GI50 (A549): > 96.4 µM (inactive)
GI50 (SNB-19): > 100 µM (inactive)
GI50 (Malme-3M): > 100 µM (inactive)
GI50 (ACHN): > 21 µM (inactive)
GI50 (SF-268): > 83.9 µM (inactive)
GI50 (SW-620): > 100 µM (inactive)
GI50 (Hs-578T): > 100 µM (inactive)
GI50 (LOX IMVI): 19 µM (inactive)
GI50 (A498): 73.1 µM (inactive)
GI50 (HL-60): 40.6 µM (inactive)
GI50 (UACC-257): 60.7 µM (inactive)
GI50 (SK-MEL-28): > 100 µM (inactive)
GI50 (NCI/ADR-RES): > 80.4 µM (inactive)
GI50 (OVCAR-5): 15.5 µM (inactive)
GI50 (NCI-H460): 48 µM (inactive)
GI50 (HOP-62): 92.7 µM (inactive)
GI50 (786-0): > 100 µM (inactive)
GI50 (SF-539): > 100 µM (inactive)
GI50 (HCT-15): 26.4 µM
GI50 (SN12C): > 90.6 µM (inactive)
GI50 (SK-MEL-2): > 91.4 µM (inactive)
GI50 (OVCAR-3): > 78 µM (inactive)
GI50 (HT-29): > 39.6 µM (inactive)
GI50 (RPMI-8226): > 57.7 µM (inactive)
GI50 (T47D): 40.9 µM (inactive)
GI50 (KM12): 28.6 µM (inactive)
GI50 (NCI-H522): > 63.5 µM (inactive)
GI50 (NCI-H226): 58.9 µM (inactive)
GI50 (SF-295): 58.1 µM (inactive)
GI50 (SNB-75): > 100 µM (inactive)
